Starred links: 1 amine or outer side, 2 acyl side, 3 side chain; linkers in the order of their positions; H or OH if unused. Non-standard residues stand in square brackets, D forms with d. Residues, ends and D or L forms follow the SMILES beside them. *: point of attachment. Acetyl(1-naphthyl) = O=C(Cc1cccc2ccccc12)*; Tpi = O=C(O)[C@@H]1Cc2c([nH]c3ccccc23)CN1; Phe(4-Cl) = N[C@@H](Cc1ccc(Cl)cc1)C(=O)O; Glutaryl = O=C(CCCC(=O)[*:2])[*:1]; Isobutyryl = CC(C)C(=O)*; Nle = CCCC[C@H](N)C(=O)O; Abu = CC[C@H](N)C(=O)O; X2 = O=C(CI)*
Target: T1, rat pituitary GH-RH receptors (Rattus norvegicus, UniProt Q02644)
T1 construct: from tissue; host or cells: rat anterior pituitary (male Sprague-Dawley), crude membranes
T1 sequence (Q02644 23-464): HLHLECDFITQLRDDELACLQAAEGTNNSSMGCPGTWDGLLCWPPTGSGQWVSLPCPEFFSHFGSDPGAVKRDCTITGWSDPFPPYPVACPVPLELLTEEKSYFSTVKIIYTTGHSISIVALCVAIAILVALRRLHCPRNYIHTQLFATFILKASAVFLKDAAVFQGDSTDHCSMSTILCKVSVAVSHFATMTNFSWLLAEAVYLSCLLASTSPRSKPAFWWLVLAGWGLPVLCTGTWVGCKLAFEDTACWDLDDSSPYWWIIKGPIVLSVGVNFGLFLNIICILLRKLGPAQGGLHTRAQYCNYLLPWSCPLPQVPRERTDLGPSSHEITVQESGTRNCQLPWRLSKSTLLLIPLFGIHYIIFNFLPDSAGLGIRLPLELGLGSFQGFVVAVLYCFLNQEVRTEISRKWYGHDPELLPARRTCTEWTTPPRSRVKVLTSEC
Assay: GH-RH binding assay, competitive binding on rat anterior pituitary membrane homogenates
Conditions: competition with labelled [His1,Nle27]hGH-RH(1-32)NH2
Protocol: GH-RH Binding Assay. A sensitive radioreceptor binding assay was developed to determine the binding characteristics of the antagonists of GH-RH (G. Halmos, A. V. Schally et al., Receptor 3, 87-97, 1993), hereby incorporated by reference. The assay is based on binding of labelled [His^1,Nle^27 ]hGH-RH(1-32)NH2 to rat anterior pituitary membrane homogenates. Iodinated derivatives of [His^1,Nle^27 ]hGH-RH(1-32)NH2 are prepared by the chloramine-T method (F. C. Greenwood et al., Biochemistry 89:114-123, 1963), hereby incorporated by reference. Pituitaries from male Sprague-Dawley rats (250-300 g) are used to prepare crude membranes. For saturation binding analyses, membrane homogenates are incubated with at least 6 concentrations of [His^1,^25 I-Tyr^10,Nle^27 ]hGH-RH(1-32)NH2, ranging from 0.005 to 0.35 nM in the presence or absence of excess unlabelled peptide (1 μM). The pellet is counted for radioactivity in a y-counter. The affinities of the antagonist peptides tested to rat pituitary GH-RH receptors are determined in competitive binding experiments. The final binding affinities are estimated by Ki (dissociation constant of the inhibitor-receptor complex) and are determined by the Ligand PC computer program of Munson and Rodbard as modified by McPherson. Relative affinities compared to [Ac-Tyr^1,D-Arg^2 ]hGH-RH(1-29)NH2, the Standard antagonist, are calculated as the ratio of Ki of the tested GH-RH antagonist to the Ki of the Standard antagonist.

Compound | Ki [nM]
CCCC[C@H](NC(=O)[C@@H](NC(=O)[C@H](CC(=O)O)NC(=O)[C@H](CCC(N)=O)NC(=O)[C@H](CC(C)C)NC(=O)[C@H](CC(C)C)NC(=O)[C@H](CCCCN)NC(=O)[C@H](CCCNC(=N)N)NC(=O)[C@H](C)NC(=O)[C@H](CO)NC(=O)[C@H](CC(C)C)NC(=O)[C@H](CCC(N)=O)NC(=O)[C@H](CC)NC(=O)[C@H](CC(C)C)NC(=O)[C@@H](NC(=O)[C@H](CCCCN)NC(=O)[C@H](CCCNC(=N)N)NC(=O)[C@H](Cc1ccc(O)cc1)NC(=O)[C@H](CO)NC(=O)[C@H](CC(N)=O)NC(=O)[C@@H](NC(=O)[C@H](Cc1ccc(Cl)cc1)NC(=O)[C@@H](NC(=O)[C@H](C)NC(=O)[C@H](CC(=O)O)NC(=O)[C@@H](CCCNC(=N)N)NC(=O)[C@H](Cc1ccc(O)cc1)NC(=O)Cc1cccc2ccccc12)[C@@H](C)CC)[C@@H](C)O)C(C)C)[C@@H](C)CC)C(=O)N[C@@H](CO)C(=O)N[C@@H](CCCNC(=N)N)C(N)=O [Peptide 1, [Nac^0,D-Arg^2, Phe(pCl)^6,Abu^15, Nle^27]hGH-RH(1-29)NH2] ({Acetyl(1-naphthyl)}-Y[dR]DAI[Phe(4-Cl)]TNSYRKVL[Abu]QLSARKLLQDI[Nle]SR-NH2) | 0.04 ± 0.01
CCCC[C@H](NC(=O)[C@@H](NC(=O)[C@H](CC(=O)O)NC(=O)[C@H](CCC(N)=O)NC(=O)[C@H](CC(C)C)NC(=O)[C@H](CC(C)C)NC(=O)[C@H](CCCCN)NC(=O)[C@H](CCCNC(=N)N)NC(=O)[C@H](C)NC(=O)[C@H](CO)NC(=O)[C@H](CC(C)C)NC(=O)[C@H](CCC(N)=O)NC(=O)[C@H](CC)NC(=O)[C@H](CC(C)C)NC(=O)[C@@H](NC(=O)[C@H](CCCCN)NC(=O)[C@H](CCCNC(=N)N)NC(=O)[C@H](Cc1ccc(O)cc1)NC(=O)[C@H](CO)NC(=O)[C@H](CC(N)=O)NC(=O)[C@@H](NC(=O)[C@H](Cc1ccc(Cl)cc1)NC(=O)[C@@H](NC(=O)[C@H](C)NC(=O)[C@H](CC(=O)O)NC(=O)[C@@H](CCCNC(=N)N)NC(=O)[C@H](Cc1c[nH]cn1)NC(=O)Cc1cccc2ccccc12)[C@@H](C)CC)[C@@H](C)O)C(C)C)[C@@H](C)CC)C(=O)N[C@@H](CO)C(=O)N[C@@H](CCCNC(=N)N)C(N)=O [Peptide 5, [Nac^0 -His^1,D-Arg^2,Phe(pCl)^6,Abu^15, Nle^27]hGH-RH(1-29)NH2] ({Acetyl(1-naphthyl)}-H[dR]DAI[Phe(4-Cl)]TNSYRKVL[Abu]QLSARKLLQDI[Nle]SR-NH2) | 0.05 ± 0.01
CCCC[C@H](NC(=O)[C@@H](NC(=O)[C@H](CC(=O)O)NC(=O)[C@H](CCC(N)=O)NC(=O)[C@H](CC(C)C)NC(=O)[C@H](CC(C)C)NC(=O)[C@H](CCCCN)NC(=O)[C@H](CCCNC(=N)N)NC(=O)[C@H](C)NC(=O)[C@H](CO)NC(=O)[C@H](CC(C)C)NC(=O)[C@H](CCC(N)=O)NC(=O)[C@H](CC)NC(=O)[C@H](CC(C)C)NC(=O)[C@@H](NC(=O)[C@H](CCCCN)NC(=O)[C@H](CCCNC(=N)N)NC(=O)[C@H](Cc1ccc(O)cc1)NC(=O)[C@H](CO)NC(=O)[C@H](CC(N)=O)NC(=O)[C@@H](NC(=O)[C@H](Cc1ccc(Cl)cc1)NC(=O)[C@@H](NC(=O)[C@H](C)NC(=O)[C@H](CC(=O)O)NC(=O)[C@@H](CCCNC(=N)N)NC(=O)[C@H](CCC(=O)O)NC(=O)CI)[C@@H](C)CC)[C@@H](C)O)C(C)C)[C@@H](C)CC)C(=O)N[C@@H](CO)C(=O)N[C@@H](CCCNC(=N)N)C(N)=O [Peptide 8] (X2-E[dR]DAI[Phe(4-Cl)]TNSYRKVL[Abu]QLSARKLLQDI[Nle]SR-NH2) | 0.91 ± 0.01
CCCC[C@H](NC(=O)[C@@H](NC(=O)[C@H](CC(=O)O)NC(=O)[C@H](CCC(N)=O)NC(=O)[C@H](CC(C)C)NC(=O)[C@H](CC(C)C)NC(=O)[C@H](CCCCN)NC(=O)[C@H](CCCNC(=N)N)NC(=O)[C@H](C)NC(=O)[C@H](CO)NC(=O)[C@H](CC(C)C)NC(=O)[C@H](CCC(N)=O)NC(=O)[C@H](CC)NC(=O)[C@H](CC(C)C)NC(=O)[C@@H](NC(=O)[C@H](CCCCN)NC(=O)[C@H](CCCNC(=N)N)NC(=O)[C@H](Cc1ccc(O)cc1)NC(=O)[C@H](CO)NC(=O)[C@H](CC(N)=O)NC(=O)[C@@H](NC(=O)[C@H](Cc1ccc(Cl)cc1)NC(=O)[C@@H](NC(=O)[C@H](C)NC(=O)[C@H](CC(=O)O)NC(=O)[C@@H](CCCNC(=N)N)NC(=O)[C@H](CCC(=O)O)NC(=O)Cc1cccc2ccccc12)[C@@H](C)CC)[C@@H](C)O)C(C)C)[C@@H](C)CC)C(=O)N[C@@H](CO)C(=O)N[C@@H](CCCNC(=N)N)C(N)=O [Peptide 9] ({Acetyl(1-naphthyl)}-E[dR]DAI[Phe(4-Cl)]TNSYRKVL[Abu]QLSARKLLQDI[Nle]SR-NH2) | 0.87 ± 0.1

Further compounds by falling Ki, results first:

Ki [nM] | Compound
1.35 ± 0.02 | CCCC[C@H](NC(=O)[C@@H](NC(=O)[C@H](CC(=O)O)NC(=O)[C@H](CCC(N)=O)NC(=O)[C@H](CC(C)C)NC(=O)[C@H](CC(C)C)NC(=O)[C@H](CCCCN)NC(=O)[C@H](CCCNC(=N)N)NC(=O)[C@H](C)NC(=O)[C@H](CO)NC(=O)[C@H](CC(C)C)NC(=O)[C@H](CCC(N)=O)NC(=O)[C@H](CC)NC(=O)[C@H](CC(C)C)NC(=O)[C@@H](NC(=O)[C@H](CCCCN)NC(=O)[C@H](CCCNC(=N)N)NC(=O)[C@H](Cc1ccc(O)cc1)NC(=O)[C@H](CO)NC(=O)[C@H](CC(N)=O)NC(=O)[C@@H](NC(=O)[C@H](Cc1ccc(Cl)cc1)NC(=O)[C@@H](NC(=O)[C@H](C)NC(=O)[C@H](CC(=O)O)NC(=O)[C@@H](CCCNC(=N)N)NC(=O)[C@H](CCC(=O)O)NC(=O)C(C)C)[C@@H](C)CC)[C@@H](C)O)C(C)C)[C@@H](C)CC)C(=O)N[C@@H](CO)C(=O)N[C@@H](CCCNC(=N)N)C(N)=O [Peptide 7] (Isobutyryl-E[dR]DAI[Phe(4-Cl)]TNSYRKVL[Abu]QLSARKLLQDI[Nle]SR-NH2)
0.3 ± 0.15 | CCCC[C@H](NC(=O)[C@@H](NC(=O)[C@H](CC(=O)O)NC(=O)[C@H](CCC(N)=O)NC(=O)[C@H](CC(C)C)NC(=O)[C@H](CC(C)C)NC(=O)[C@H](CCCCN)NC(=O)[C@H](CCCNC(=N)N)NC(=O)[C@H](C)NC(=O)[C@H](CO)NC(=O)[C@H](CC(C)C)NC(=O)[C@H](CCC(N)=O)NC(=O)[C@H](CC)NC(=O)[C@H](CC(C)C)NC(=O)[C@@H](NC(=O)[C@H](CCCCN)NC(=O)[C@H](CCCNC(=N)N)NC(=O)[C@H](Cc1ccc(O)cc1)NC(=O)[C@H](CO)NC(=O)[C@H](CC(N)=O)NC(=O)[C@@H](NC(=O)[C@@H]1Cc2c([nH]c3ccccc23)CN1C(=O)[C@@H](NC(=O)[C@H](C)NC(=O)[C@H](CC(=O)O)NC(=O)[C@@H](CCCNC(=N)N)NC(=O)CCCC(=O)O)[C@@H](C)CC)[C@@H](C)O)C(C)C)[C@@H](C)CC)C(=O)N[C@@H](CO)C(=O)N[C@@H](CCCNC(=N)N)C(N)=O [Peptide 12, [Glt^1,D-Arg^2,Tpi^6,Abu^15,Nle^27]hGH-RH(1-29)NH2] (Glutaryl-[dR]DAI[Tpi]TNSYRKVL[Abu]QLSARKLLQDI[Nle]SR-NH2)

From patent publication US5550212A, “Analogues of hGH-RH(1-29)NH2 having antagonistic activity” (The Administrators of the Tulane Educational Fund, priority 1993, dated 1996)
